Laboratory results taken from US8222270B2 (Medicis Pharmaceutical Corporation, priority 2008, dated 2012).

Assays:
[1] = Acute single dose toxicity (oral, intraperitoneal, subcutaneous, intravenous); type: in vivo
[2] = tested on: human monocytes/macrophages and keratinocytes; experiment: In vitro cytokine induction; type: cell-based
From the text: The panel of cytokines induced varied with the cell's tissue origin.

CC(C)Cn1cnc2c(N)nc3ccccc3c21 [imiquimod, 1-(2-methylpropyl)-1H-imidazo[4,5-c]quinolin-4-amine]
LD50 ([1]; Monkey, intravenous bolus): >6 mg/kg | LD50 ([1]; Monkey, intravenous infusion): ≈8 mg/kg | LD50 ([1]; Monkey, oral): >200 mg/kg | LD50 ([1]; Rat, subcutaneous): ≈20 mg/kg | Single dose toxicity signs ([1]; oral, intraperitoneal, subcutaneous or intravenous, lethal doses): central nervous system (CNS) stimulation and convulsions | Release of interferon alpha (IFN-α) and other cytokines [2]: induces the release
